pEC50, pIC50: −log10 of the molar value.
Key:
IRAK4 = IRAK4 (Homo sapiens (Human), UniProt Q9NWZ3); experiment: IRAK-4 AlphaScreen biochemical kinase assay; details: 1 nM IRAK4, 1 mM ATP, 3.5 h at RT
How it was run: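 AlphaScreen read-out: streptavidin beads bind the biotinylated peptide and protein A beads bind the anti-phosphothreonine antibody, so energy transfer reports phosphorylation of the peptide. The kinase is human IRAK-4.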

IL-6 in A549 cells = experiment: Cell-based IL-6 ELISA assay in IL-1beta stimulated A549 cells; details: 2 ng/ml human IL-1beta overnight
How it was run: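 A549 cells (2.5×10^4/well, DMEM/10% FBS) pretreated 30 min at 37 C with compound, 10-point serial dilution from 10 uM, then stimulated overnight with 2 ng/ml human IL-1beta. Secreted IL-6 in supernatant quantified by human IL-6 ELISA.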

Chain of IRAK4 (Q9NWZ3 whole entry, species assumed): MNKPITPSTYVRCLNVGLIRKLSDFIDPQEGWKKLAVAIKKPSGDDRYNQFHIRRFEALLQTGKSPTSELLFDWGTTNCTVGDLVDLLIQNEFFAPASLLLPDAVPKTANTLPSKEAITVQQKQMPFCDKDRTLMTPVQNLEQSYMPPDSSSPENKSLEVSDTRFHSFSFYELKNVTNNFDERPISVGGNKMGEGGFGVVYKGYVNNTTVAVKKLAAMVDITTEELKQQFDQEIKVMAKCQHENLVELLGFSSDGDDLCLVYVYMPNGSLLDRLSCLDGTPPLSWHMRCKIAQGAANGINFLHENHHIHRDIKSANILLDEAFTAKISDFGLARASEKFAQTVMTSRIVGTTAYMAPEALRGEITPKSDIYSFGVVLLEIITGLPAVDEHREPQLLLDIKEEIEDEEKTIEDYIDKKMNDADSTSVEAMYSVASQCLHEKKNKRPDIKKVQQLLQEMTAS

Row | SMILES | pIC50 (IRAK4) | pEC50 (IL-6 in A549 cells)
1 | CCC[C@H](N)c1cccc(-c2cc(COC)c3cnn(-c4cccc(CO)n4)c3c2)n1 [Example 495, (S)-(6-(6-(6-(1-aminobutyl)pyridin-2-yl)-4-(methoxymethyl)-1H-indazol-1-yl)pyridin-2-yl)methanol] | > 7.00 | ≥ 6.00
2 | CCC[C@H](N)c1cccc(-c2cc(N3CCC(F)(F)C3)c3cnn(-c4cccc(CO)n4)c3c2)n1 [Example 333, (S)-(6-(6-(6-(1-aminobutyl)pyridin-2-yl)-4-(3,3-difluoropyrrolidin-1-yl)-1H-indazol-1-yl)pyridin-2-yl)methanol] | > 7.00 | ≥ 6.00
3 | CCC[C@H](N)c1cccc(-c2ccc3cnn(-c4cccc([C@@H](O)C(F)(F)F)n4)c3c2)n1 [Example 451, (R)-1-(6-(6-(6-((S)-1-aminobutyl)pyridin-2-yl)-1H-indazol-1-yl)pyridin-2-yl)-2,2,2-trifluoroethanol] | > 7.00 | ≥ 6.00
4 | CCC[C@H](N)c1cccc(-c2cc(N3CCCC(F)(F)C3)c3cnn(-c4cccc(CO)n4)c3c2)n1 [Example 347, (S)-(6-(6-(6-(1-aminobutyl)pyridin-2-yl)-4-(3,3-difluoropiperidin-1-yl)-1H-indazol-1-yl)pyridin-2-yl)methanol] | > 7.00 | ≥ 6.00
5 | CCC[C@H](N)c1cccc(-c2cc(OCC)c3cnn(-c4nccc(C(F)(F)F)n4)c3c2)n1 [Example 505, (S)-1-(6-(4-ethoxy-1-(4-(trifluoromethyl)pyrimidin-2-yl)-1H-indazol-6-yl)pyridin-2-yl)butan-1-amine] | > 7.00 | ≥ 6.00
6 | C[C@H](N)c1cccc(-c2cc(-c3cc[nH]n3)c3cnn(-c4cccc(CO)n4)c3c2)n1 [Example 381, (S)-(6-(6-(6-(1-aminoethyl)pyridin-2-yl)-4-(1H-pyrazol-3-yl)-1H-indazol-1-yl)pyridin-2-yl)methanol] | > 7.00 | 5.00 to 6.00
7 | CCOc1cc(-c2cccc([C@@H](N)CCC(F)(F)F)n2)cc2c1cnn2-c1cccc(CO)n1 [Example 510, (S)-(6-(6-(6-(1-amino-4,4,4-trifluorobutyl)pyridin-2-yl)-4-ethoxy-1H-indazol-1-yl)pyridin-2-yl)methanol] | > 7.00 | ≥ 6.00
8 | CC(O)c1cccc(-n2ncc3ccc(-c4cccc([C@H](C)N)n4)cc32)n1 (single isomer, unassigned) [Example 415] | 6.00 to 7.00 | ≥ 6.00
9 | CCC[C@H](N)c1cccc(-c2cc(N3CCC(O)C3)c3cnn(-c4cccc(CO)n4)c3c2)n1 (stereo partly drawn) [Example 325, 1-(6-(6-((S)-1-aminobutyl)pyridin-2-yl)-1-(6-(hydroxymethyl)pyridin-2-yl)-1H-indazol-4-yl)pyrrolidin-3-ol] | > 7.00 | ≥ 6.00
10 | CCC[C@H](N)c1cccc(-c2cc(OC)c3cnn(-c4cncc(CO)n4)c3c2)n1 [Example 489, (S)-(6-(6-(6-(1-aminobutyl)pyridin-2-yl)-4-methoxy-1H-indazol-1-yl)pyrazin-2-yl)methanol] | > 7.00 | ≥ 6.00
11 | CCC[C@H](N)c1cccc(-c2cc(C3=CCOCC3)c3cnn(-c4cccc(CO)n4)c3c2)n1 [Example 494, (S)-(6-(6-(6-(1-aminobutyl)pyridin-2-yl)-4-(3,6-dihydro-2H-pyran-4-yl)-1H-indazol-1-yl)pyridin-2-yl)methanol] | > 7.00 | ≥ 6.00
12 | CCC[C@H](N)c1cccc(-c2ccc3cnn(-c4cncc(CO)n4)c3c2)n1 [Example 399, (S)-(6-(6-(6-(1-aminobutyl)pyridin-2-yl)-1H-indazol-1-yl)pyrazin-2-yl)methanol] | > 7.00 | ≥ 6.00
13 | CCOc1cc(-c2cccc([C@@H](N)[C@H](F)CC)n2)cc2c1cnn2-c1cccc(CO)n1 [Example 443, (6-(6-(6-((1R,2R)-1-amino-2-fluorobutyl)pyridin-2-yl)-4-ethoxy-1H-indazol-1-yl)pyridin-2-yl)methanol] | > 7.00 | ≥ 6.00
14 | Cc1csc(-c2cc(-c3cccc([C@H](C)N)n3)cc3c2cnn3-c2cccc(CO)n2)n1 [Example 375, (S)-(6-(6-(6-(1-aminoethyl)pyridin-2-yl)-4-(4-methylthiazol-2-yl)-1H-indazol-1-yl)pyridin-2-yl)methanol] | > 7.00 | ≥ 6.00
15 | CCCC[C@H](N)c1cccc(-c2ccc3cnn(-c4cccc(CO)n4)c3c2)n1 [Example 493, (S)-(6-(6-(6-(1-aminopentyl)pyridin-2-yl)-1H-indazol-1-yl)pyridin-2-yl)methanol] | > 7.00 | ≥ 6.00
16 | CC[C@H](N)c1cccc(-c2cc(F)c3cnn(-c4cccc(CO)n4)c3c2)n1 [Example 473, (S)-(6-(6-(6-(1-aminopropyl)pyridin-2-yl)-4-fluoro-1H-indazol-1-yl)pyridin-2-yl)methanol] | > 7.00 | ≥ 6.00
17 | CCC[C@H](N)c1cccc(-c2cc(N3CCCC(O)C3)c3cnn(-c4cccc(CO)n4)c3c2)n1 (stereo partly drawn) [Example 330, 1-(6-(6-((S)-1-aminobutyl)pyridin-2-yl)-1-(6-(hydroxymethyl)pyridin-2-yl)-1H-indazol-4-yl)piperidin-3-ol] | > 7.00 | ≥ 6.00
18 | CC1(CC(N)c2cccc(-c3ccc4cnn(-c5cccc(CO)n5)c4c3)n2)COC1 (stereo not drawn) [Example 448, (6-(6-(6-(1-amino-2-(3-methyloxetan-3-yl)ethyl)pyridin-2-yl)-1H-indazol-1-yl)pyridin-2-yl)methanol] | > 7.00 | 5.00 to 6.00
19 | N[C@@H](CCC(F)(F)F)c1cccc(-c2ccc3cnn(-c4cccc(CO)n4)c3c2)n1 [Example 427, (S)-(6-(6-(6-(1-amino-4,4,4-trifluorobutyl)pyridin-2-yl)-1H-indazol-1-yl)pyridin-2-yl)methanol] | > 7.00 | ≥ 6.00
20 | CCC[C@H](N)c1cccc(-c2cc(OC(F)(F)F)c3cnn(-c4cccc(CO)n4)c3c2)n1 [Example 523, (S)-(6-(6-(6-(1-aminobutyl)pyridin-2-yl)-4-(trifluoromethoxy)-1H-indazol-1-yl)pyridin-2-yl)methanol] | > 7.00 | ≥ 6.00
21 | CCC[C@H](N)c1cccc(-c2cc(C3CCOCC3)c3cnn(-c4cccc(CO)n4)c3c2)n1 [Example 425, (S)-(6-(6-(6-(1-aminobutyl)pyridin-2-yl)-4-(tetrahydro-2H-pyran-4-yl)-1H-indazol-1-yl)pyridin-2-yl)methanol] | > 7.00 | ≥ 6.00
22 | CCC[C@H](N)c1cccc(-c2cc(NCC(CCl)C(=O)O)c3cnn(-c4cccc(CO)n4)c3c2)n1 (stereo partly drawn) [Example 336, 3-((6-(6-((S)-1-aminobutyl)pyridin-2-yl)-1-(6-(hydroxymethyl)pyridin-2-yl)-1H-indazol-4-yl)amino)-2-(chloromethyl)propanoic acid] | > 7.00 | ≥ 6.00
23 | CCC[C@H](N)c1cccc(-c2cc(N3CCN(C)CC3)c3cnn(-c4cccc(CO)n4)c3c2)n1 [Example 343, (S)-(6-(6-(6-(1-aminobutyl)pyridin-2-yl)-4-(4-methylpiperazin-1-yl)-1H-indazol-1-yl)pyridin-2-yl)methanol] | > 7.00 | ≥ 6.00
24 | CCC[C@H](N)c1cccc(-c2cc(NC)c3cnn(-c4cccc(CO)n4)c3c2)n1 [Example 327, (S)-(6-(6-(6-(1-aminobutyl)pyridin-2-yl)-4-(methylamino)-1H-indazol-1-yl)pyridin-2-yl)methanol] | > 7.00 | ≥ 6.00

Source: US10246456B2, “IRAK4 inhibiting agents” (BIOGEN MA INC., priority 2014, dated 2019)
